From patent EP0182152B1, “Antitumor antibiotics (LL-E33288 Complex)” (AMERICAN CYANAMID COMPANY, priority 1984, dated 1986) come the findings set out here.

Holding throughout (assay type): in vivo, BDF1 mice
Assay [1] concerns melanotic melanoma B16. As to the kind of experiment: Melanotic Melanoma B16 Test. The text has this: (§1) Certain in vivo testing systems and protocols have been developed by the National Cancer Institute for testing compounds to determine their suitability as anti-neoplastic agents. These have been reported in "Cancer Chemotherapy Reports", Part III, Vol. 3, No. 2 (1972), Geran, et al. These protocols have established standardized screening tests which are generally followed in the field of testing for antitumor agents. Of these systems, lymphocytic leukemia P388, melanotic melanoma B16, L1210 leukemia and colon 26 adenocarcinoma are particularly significant to the present invention. These neoplasms are utilized for testing as transplantable tumors in mice. Generally, significant anti-tumor activity, shown in these protocols by a percentage increase of mean survival times of the treated animals (T) over the control animals (C), is indicative of similar results in human leukemias and solid tumors.
The animals used were BDF1 mice, all of the same sex, weighing a minimum of 17 g and all within a 3 g weight range. There are normally 6 animals per test group. A 1 g portion of melanotic melanoma β16 tumor was homogenized in 10 ml of cold balanced salt solution and a 0.5 ml aliquot of the homogenate was implanted intraperitoneally into each of the test mice. LL-E33288 antibiotics were tested in the β16 system both as the individual β1-Br and γ1-Br components and as a complex of all components (Bromo-complex). The test compounds were administered intraperitioneally on days 1 through 9 (relative to tumor inoculation) at various doses. The mice were weighed and survivors recorded on a regular basis for 60 days. The median survival time and the ratio of survival time for treated (T)/control (C) animals were calculated. The positive control compounds were Cisplatin or Adriamycin. The results of this test appear in Table V. If T/C X 100 (%) is 125 or over, the tested compound is considered to have significant anti-tumor activity.
(§2) In the same manner, the following iodo-components were tested for antineoplastic activity.

The subject of assay [2] is lymphocytic leukemia P388. The experiment in a line: Lymphocytic Leukemia P388 Test. The following applies: Table IX.
Description: as §1
The animals used were BDF1 mice, all of one sex, weighing a minimum of 17 g and all within a 3 g weight range. There were 5 or 6 mice per test group. The tumor transplant was by intraperitoneal injection of 0.5 ml of dilute ascitic fluid containing 10^6 cells of lymphocytic leukemia P388. LL-E33288 antibiotics were tested in the P388 system both as the individual β1-Br and […] components and as a complex of all components (Bromo-complex). The test compounds were administered intrapertioneally at a volume of 0.5 ml in 0.2% Klucel in normal saline on days 1, 5 and 9 (relative to tumor inoculation) at the indicated doses. The mice were weighed and the survivors recorded on a regular basis for 30 days. The median survival time and the ratio of survival time for treated (T)/control (C) animals were calculated. The positive control compound was Cisplatin given as an intraperitioneal injection in 0.5 ml of 0.2% Klucel on days 1, 5 and 9 at the indicated doses.
If T/C X 100 (%) is 125 or over, the tested compound is considered to have significant anti-tumor activity.
as §2

Assay [3] deals with lymphocytic leukemia L1210. As to the kind of experiment: Lymphocytic Leukemia L1210 Test.
Description: as §1
The animals used were BDF1 mice, all of one sex, weighing a minimum of 17 g and all within a 3 g weight range. There were 6 mice in each test group and 18 in control groups. The tumor transplant was by intraperitoneal injection of 0.5 ml of lymphocytic leukemia L1210 at a concentration of 10^5 cells per mouse. LL-E33288 antibiotics were tested in the L1210 system both as the individual β1-Br component and as a complex of all components (Bromo-complex). The test compounds were administered on days 1, 5 and 9 or days 1 through 9 (relative to tumor inoculation) at various doses. The mice were weighed and survivors recorded on a regular basis for 30 days. The median survival time and the ratio of survival time for treated (T)/control (C) animals were calculated. The positive control compound was 1,4-dihydroxy-5,8-bis[[2-(2-hydroxyethylamino)ethyl]amino]anthraquinone dihydrochloride or Cisplatin given intraperitoneally at the indicated dose. If T/C X 100 (%) is 125 or over, the tested compound is considered to have significant anti-tumor activity.
as §2

Setting [4] is: Table V, dose 0.4 mg/kg, control 19 days, survivors recorded for 60 days.
[5] abbreviates: Table V, dose 0.8 mg/kg, control 19 days, survivors recorded for 60 days.
The mark [6] stands for this setting: Table X, dose 0.2 mg/kg, control value not given.
The mark [7] stands for this setting: Table X, dose 0.4 mg/kg, control value not given.
Where [8] appears, read: Table X, dose 0.8 mg/kg, control value not given.
Setting [9] is: Test 1, dose 1.6 mg/kg, control 13 days.
The mark [10] stands for this setting: Test 2, dose 0.8 mg/kg, control 11 days.
The mark [11] stands for this setting: Test 2, dose 1.6 mg/kg, control 11 days.
The mark [12] stands for this setting: Table VI, days 1, 5 and 9 or days 1 through 9, dose 0.4 mg/kg, control 16.7 days.
Setting [13] is: Table VI, days 1, 5 and 9 or days 1 through 9, dose 0.8 mg/kg, control 16.7 days.
The mark [14] stands for this setting: Table VI, i.p., dose 1.6 mg/kg, control 16.7 days.
The mark [15] stands for this setting: Table XI, dose 0.4 mg/kg, control 9 days.
Setting [16] is: Table XI, dose 0.8 mg/kg, control 9 days.
The mark [17] stands for this setting: Table XI, dose 1.6 mg/kg, control 9 days.
The mark [18] stands for this setting: Table XI, dose 3.2 mg/kg, control 9 days.

Structures are written as SMILES. Where only a bound is given, the exact number is not on record here.

For the molecule `COc1cccc2c1C(=O)c1c(O)c3c(c(O)c1C2=O)C[C@@](O)(C(=O)CO)C[C@@H]3O[C@H]1C[C@H](N)[C@H](O)[C@H](C)O1` [Adriamycin], the “Median Survival” value in assay [1] (setting [4]) is > 60 days; in assay [1] (setting [5]), > 60 days; in assay [1] (setting [6]), 34.5 days; in assay [1] (setting [7]) it was 40 days; in assay [1] (setting [8]), 48 days. Also, the “T/C x 100” value was > 316% in assay [1] (setting [4]); > 316% in assay [1] (setting [5]); 203% in assay [1] (setting [6]); 235% in assay [1] (setting [7]); 282% in assay [1] (setting [8]).
Take `Cl.Cl.O=C1c2c(O)ccc(O)c2C(=O)c2c(NCCNCCO)ccc(NCCNCCO)c21` [Novantrone®, 1,4-dihydroxy-5,8-bis[[2-(2-hydroxyethylamino)ethyl]amino]anthraquinone dihydrochloride]: the “Median Survival” value amounted to 22.5 days in assay [2] (setting [9]); 16 days in assay [2] (setting [10]); 19 days in assay [2] (setting [11]); 30 days in assay [3] (setting [12]); 30 days in assay [3] (setting [13]); 30 days in assay [3] (setting [14]). In addition, the “Median Survival” value in assay [3] (setting [15]) was determined as 11 days; in assay [3] (setting [16]), 12 days; in assay [3] (setting [17]) it was 11.5 days; in assay [3] (setting [18]) it was 15 days. Besides, the “T/C x 100” value was 173% in assay [2] (setting [9]); 145% in assay [2] (setting [10]); 173% in assay [2] (setting [11]); 180% in assay [3] (setting [12]); 180% in assay [3] (setting [13]); 180% in assay [3] (setting [14]). The “T/C x 100” value in assay [3] (setting [15]) was 122%; in assay [3] (setting [16]) it was 133%; in assay [3] (setting [17]), 128%; in assay [3] (setting [18]) it was 167%.
